Experimental data reported in patent US20170224647A1, “NEW MDR1 INHIBITORS FOR OVERCOMING MULTIDRUG RESISTANCE” (UNIVERSITA' DEGLI STUDI DI PARMA, priority 2014, published 2017).

Experiments:
[1] = molecular target: T1, MDR1 (Homo sapiens, UniProt P08183); test: MDR1-mediated accumulation of fluorescent calcein in A549 cells; format: cell-based; details: A549 human lung adenocarcinoma cells; FIG. 3A
T1 construct: lung squamous-cell carcinoma (SKMES) expressing high levels of MDR1 on the plasma membrane; endogenous in cells; host or cells: SKMES (lung squamous-cell carcinoma)
Experimental: (§1) The lung carcinoma cell lines A549 and SKMES are grown in RPMI, supplemented with 10% fetal calf serum (FCS), 2 mM glutamine (Gln), and antibiotics (Penicillin 100 UI/ml and Streptomycin 100 μg/ml). Cells are kept in a thermostat at a temperature of 37° C., in air saturated with water vapor, enriched with 5% CO2.
(§2) Once the growth medium has been removed from the cells, a PBS washing at 37° C. is carried out, and RPMI without phenol red containing antibiotics is added, 5% FCS, 10 mM HEPES and 2mM Glutamine in the presence/absence of Calcein AM or 1 μM Hoechst and possible inhibitors are added. At the end of the loading, two washings with cold PBS are carried out, RPMI without Calcein AM or Hoechst is added, and samples are read by using the fluorescence plate reader (Enspire, Perkin Elmer; A of excitation: 360 nm; λ of emission: 465 nm). The value provided by the instrument is proportional to the intracellular concentration of Calcein AM and Hoechst. Finally, the cells are treated with 5% TCA, followed by 0.5 N NaOH to solubilize the cells. The protein content is determined by the Bradford method, and it is used for normalizing the uptake values of Calcein AM and Hoechst. The accumulation of Calcein or Hoechst is therefore expressed as the fluorescence intensity/mg proteins.

[2] = molecular target: T1, MDR1; test: MDR1-mediated accumulation of fluorescent calcein in SKMES cells; format: cell-based; details: SKMES lung squamous-cell carcinoma cells; compared with PSC833; FIG. 3B
Experimental: as §1, §2

[3] = molecular target: T2, ABCG2 (Homo sapiens, UniProt Q9UNQ0); test: ABCG2-mediated outflow of fluorescent Hoechst in H460 cells; format: cell-based; details: H460 cells over-expressing ABCG2; FIG. 4
T2 construct: a model of human lung adenocarcinoma (H460) over-expressing such receptor; endogenous in cells; host or cells: H460 (human lung carcinoma)
T2 sequence (Q9UNQ0 1-655): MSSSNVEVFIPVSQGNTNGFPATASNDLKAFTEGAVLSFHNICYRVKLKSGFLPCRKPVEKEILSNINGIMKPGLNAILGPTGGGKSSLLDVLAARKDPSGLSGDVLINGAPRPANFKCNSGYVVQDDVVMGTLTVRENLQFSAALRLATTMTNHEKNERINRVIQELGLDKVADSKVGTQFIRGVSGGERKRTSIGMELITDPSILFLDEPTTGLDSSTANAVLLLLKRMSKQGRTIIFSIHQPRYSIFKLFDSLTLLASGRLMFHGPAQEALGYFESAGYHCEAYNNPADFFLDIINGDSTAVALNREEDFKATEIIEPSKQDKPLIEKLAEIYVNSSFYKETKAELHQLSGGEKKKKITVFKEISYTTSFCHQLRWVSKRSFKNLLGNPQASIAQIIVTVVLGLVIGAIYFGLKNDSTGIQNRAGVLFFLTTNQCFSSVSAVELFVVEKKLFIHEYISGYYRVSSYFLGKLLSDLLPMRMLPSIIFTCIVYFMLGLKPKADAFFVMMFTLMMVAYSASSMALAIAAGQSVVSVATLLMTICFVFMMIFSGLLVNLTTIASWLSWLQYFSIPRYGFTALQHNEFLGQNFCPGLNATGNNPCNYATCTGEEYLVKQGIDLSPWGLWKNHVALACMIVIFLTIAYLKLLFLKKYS
Experimental: as §2

[4] = molecular target: T3, ABCA1 (Mus musculus, UniProt P41233); test: ABCA1-mediated cholesterol outflow; format: cell-based; details: murine peritoneal macrophages, apolipoprotein A-I acceptor; FIG. 5B
T3 construct: the expression of the ABCA1 protein on the plasma membrane was stimulated by adding 22-OH cholesterol and 9-cis-retinoic acid; endogenous in cells; host or cells: murine peritoneal macrophages (primary)
Experimental: Murine peritoneal macrophages were seeded in da 24-well plates, each containing 10^6 cell/well in 10% RPMI of fetal bovine serum (FBS). After 24 h, following a PBS washing, the cells were incubated with radiolabeled medium containing [3H]-cholesterol at a concentration of 2 μCi/ml in a medium supplemented with FBS 2% in the presence of the inhibitor of the esterifying enzyme ACAT (SAH58035) at a final concentration of 2 μg/ml in order to maintain all the intracellular cholesterol in the free form and the ABCA1 substrate in the outflow process. At the completion of the 24-hour staining, after the PBS washing, the cells were incubated with an equilibration medium composed of RPMI, 0.2% albumin, and the ACAT inhibitor. […] The filtered medium was collected and transferred into a vial, together with the scintillation liquid for the subsequent reading at the β-counter for the measurement of the radioactivity present in the cultural medium, which is an index of the free cholesterol excreted by the cells. The outflow percentage is calculated on the total radioactivity which is present in the cell by the following formula: % outflow=(average cpm/total cpm of the monolayer)×100. Each experimental condition was carried out in triplicates, and data was expressed as mean±standard deviation.

[5] = molecular target: T4, ABCG1 (Homo sapiens, UniProt P45844); test: ABCG1-mediated cholesterol outflow; format: cell-based, hamster; details: CHO-L3 over-expressing ABCG1 vs CHO-K1, HDL acceptor; FIG. 5A
T4 construct: expressed in transfected cells; host or cells: CHO-L3 (derived from hamster ovary CHO-K1, which serves as control)
Experimental: In order to assess the ABCG1-mediated outflow, control hamster ovary cells CHO-K1 and CHO-L3 over-expressing the ABCG1 protein in Ham's medium F12 with 10% FBS were seeded in parallel in sterile 24-well plates. After 24 h, both cell lines were labeled with 10% FBS medium containing 1 μCi/ml [3H]-cholesterol. At the end of the labelling period (24 h), both cell lines were washed with PBS and equilibrated during 90 minutes with medium supplemented with 0.2% albumin. At the end of the equilibration, the cells were treated in the absence or presence of our compound AIF1 during 2 hours, and incubated for the next 6 hours e with the cholesterol acceptors, HDLs, at a concentration of 12.5 μg/ml. The quantification of the tritiated cholesterol secreted by the cells in the medium was determined as described in the previous paragraph. In particular, the contribution of the ABCG1 transporter to the cholesterol outflow was calculated as the difference between the outflow percentages obtained from the cell line CHO-L3 over-expressing ABCG1 and those obtained from the control cell line CHO-K1. Each experimental condition was carried out in triplicates, and data was expressed as mean±standard deviation.

[6] = tested on: SKMES cells; test: Intracellular doxorubicin by confocal microscope; format: cell-based, human
Experimental: SKMES cells were seeded on cover glasses and incubated with culture medium in a thermostat for 24 h. […]
Images were taken by using a confocal microscope (LSM 510 Meta scan integrated with a reversed microscope Carl Zeiss, Jena Germany), with a 43×/1.30 oil immersion lens.
Fluorescence of doxorubicin was excited with a 488 nm argon laser and its emission was collected by a 530 nm filter. During the analysis of the various samples, the confocal settings (excitation, laser power, detection range, and pinhole size) were kept unaltered.

[7] = tested on: tumoral cell; test: Intracellular concentration of doxorubicin by LC-MS/MS; format: cell-based; details: after AIF1 treatment compared to untreated cells; FIG. 8
Experimental: The intracellular content of Doxorubicin and AIF-1 may be determined by liquid chromatography-tandem mass spectrometry (LC-MS/MS) of samples extracted with absolute ethanol. In particular, after the treatment with the drugs, the culture medium is removed, and 3 washings of the cell monolayer with PBS are carried out. Then, the cells are incubated for ten minutes at room temperature with absolute ethanol, which is then analyzed by a LC-MS/MS technique. Values were normalized for the protein content assessed after solubilization of the cell monolayer with 0.5N NaOH and are expressed as pmoles/mg proteins.
Doxorubicin and AIF-1 concentrations in the samples of cell extracts were determined by liquid chromatography-tandem mass spectrometry (LCMS/MS) by using a mass spectrometer.
The samples extracted in ethanol were filtered on a 0.2 μm cellulose filter and analyzed by liquid chromatography-tandem mass spectrometry (LC-MS/MS). […]
The full scan mass spectra were recorded in the 250-900 m/z range, using a 0.1 stepsize and 1 s scan time in the positive ion mode for doxorubicin and atenolol (ATN, used as the internal standard) and in the negative ion mode for AIF1. […]

T1 sequence (P08183 whole entry): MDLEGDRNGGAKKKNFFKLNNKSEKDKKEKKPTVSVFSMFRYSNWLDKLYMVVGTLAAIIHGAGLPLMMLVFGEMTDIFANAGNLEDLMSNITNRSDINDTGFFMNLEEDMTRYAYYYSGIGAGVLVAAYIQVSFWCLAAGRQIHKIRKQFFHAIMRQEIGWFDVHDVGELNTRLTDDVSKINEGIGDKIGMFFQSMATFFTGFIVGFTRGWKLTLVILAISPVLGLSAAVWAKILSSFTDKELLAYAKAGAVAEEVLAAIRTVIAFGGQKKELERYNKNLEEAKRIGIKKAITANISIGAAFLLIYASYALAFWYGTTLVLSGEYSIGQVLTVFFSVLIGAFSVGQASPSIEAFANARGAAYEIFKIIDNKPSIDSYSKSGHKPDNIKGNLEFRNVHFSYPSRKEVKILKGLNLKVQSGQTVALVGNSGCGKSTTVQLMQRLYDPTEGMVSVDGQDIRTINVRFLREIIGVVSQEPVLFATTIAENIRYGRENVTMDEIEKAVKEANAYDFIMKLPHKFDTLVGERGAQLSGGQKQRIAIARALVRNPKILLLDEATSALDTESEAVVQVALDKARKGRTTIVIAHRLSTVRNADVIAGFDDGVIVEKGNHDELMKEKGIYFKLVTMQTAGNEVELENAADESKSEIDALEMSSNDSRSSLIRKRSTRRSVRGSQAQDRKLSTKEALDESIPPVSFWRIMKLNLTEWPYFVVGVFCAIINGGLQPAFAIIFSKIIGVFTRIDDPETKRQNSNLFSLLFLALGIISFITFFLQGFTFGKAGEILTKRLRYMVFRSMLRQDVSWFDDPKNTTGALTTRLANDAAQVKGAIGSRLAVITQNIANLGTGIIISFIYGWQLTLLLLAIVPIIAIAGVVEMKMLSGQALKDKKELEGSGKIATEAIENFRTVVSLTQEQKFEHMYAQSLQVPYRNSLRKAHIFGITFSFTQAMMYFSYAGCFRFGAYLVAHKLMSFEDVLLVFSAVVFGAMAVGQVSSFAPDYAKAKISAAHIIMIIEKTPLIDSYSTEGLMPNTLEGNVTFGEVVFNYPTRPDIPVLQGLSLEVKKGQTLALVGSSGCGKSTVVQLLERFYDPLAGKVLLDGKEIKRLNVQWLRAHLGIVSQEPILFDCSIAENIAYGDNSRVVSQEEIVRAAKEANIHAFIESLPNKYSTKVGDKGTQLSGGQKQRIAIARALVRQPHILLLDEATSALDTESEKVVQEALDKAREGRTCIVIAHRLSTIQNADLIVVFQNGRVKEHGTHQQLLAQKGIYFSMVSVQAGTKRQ
T3 sequence (P41233 whole entry): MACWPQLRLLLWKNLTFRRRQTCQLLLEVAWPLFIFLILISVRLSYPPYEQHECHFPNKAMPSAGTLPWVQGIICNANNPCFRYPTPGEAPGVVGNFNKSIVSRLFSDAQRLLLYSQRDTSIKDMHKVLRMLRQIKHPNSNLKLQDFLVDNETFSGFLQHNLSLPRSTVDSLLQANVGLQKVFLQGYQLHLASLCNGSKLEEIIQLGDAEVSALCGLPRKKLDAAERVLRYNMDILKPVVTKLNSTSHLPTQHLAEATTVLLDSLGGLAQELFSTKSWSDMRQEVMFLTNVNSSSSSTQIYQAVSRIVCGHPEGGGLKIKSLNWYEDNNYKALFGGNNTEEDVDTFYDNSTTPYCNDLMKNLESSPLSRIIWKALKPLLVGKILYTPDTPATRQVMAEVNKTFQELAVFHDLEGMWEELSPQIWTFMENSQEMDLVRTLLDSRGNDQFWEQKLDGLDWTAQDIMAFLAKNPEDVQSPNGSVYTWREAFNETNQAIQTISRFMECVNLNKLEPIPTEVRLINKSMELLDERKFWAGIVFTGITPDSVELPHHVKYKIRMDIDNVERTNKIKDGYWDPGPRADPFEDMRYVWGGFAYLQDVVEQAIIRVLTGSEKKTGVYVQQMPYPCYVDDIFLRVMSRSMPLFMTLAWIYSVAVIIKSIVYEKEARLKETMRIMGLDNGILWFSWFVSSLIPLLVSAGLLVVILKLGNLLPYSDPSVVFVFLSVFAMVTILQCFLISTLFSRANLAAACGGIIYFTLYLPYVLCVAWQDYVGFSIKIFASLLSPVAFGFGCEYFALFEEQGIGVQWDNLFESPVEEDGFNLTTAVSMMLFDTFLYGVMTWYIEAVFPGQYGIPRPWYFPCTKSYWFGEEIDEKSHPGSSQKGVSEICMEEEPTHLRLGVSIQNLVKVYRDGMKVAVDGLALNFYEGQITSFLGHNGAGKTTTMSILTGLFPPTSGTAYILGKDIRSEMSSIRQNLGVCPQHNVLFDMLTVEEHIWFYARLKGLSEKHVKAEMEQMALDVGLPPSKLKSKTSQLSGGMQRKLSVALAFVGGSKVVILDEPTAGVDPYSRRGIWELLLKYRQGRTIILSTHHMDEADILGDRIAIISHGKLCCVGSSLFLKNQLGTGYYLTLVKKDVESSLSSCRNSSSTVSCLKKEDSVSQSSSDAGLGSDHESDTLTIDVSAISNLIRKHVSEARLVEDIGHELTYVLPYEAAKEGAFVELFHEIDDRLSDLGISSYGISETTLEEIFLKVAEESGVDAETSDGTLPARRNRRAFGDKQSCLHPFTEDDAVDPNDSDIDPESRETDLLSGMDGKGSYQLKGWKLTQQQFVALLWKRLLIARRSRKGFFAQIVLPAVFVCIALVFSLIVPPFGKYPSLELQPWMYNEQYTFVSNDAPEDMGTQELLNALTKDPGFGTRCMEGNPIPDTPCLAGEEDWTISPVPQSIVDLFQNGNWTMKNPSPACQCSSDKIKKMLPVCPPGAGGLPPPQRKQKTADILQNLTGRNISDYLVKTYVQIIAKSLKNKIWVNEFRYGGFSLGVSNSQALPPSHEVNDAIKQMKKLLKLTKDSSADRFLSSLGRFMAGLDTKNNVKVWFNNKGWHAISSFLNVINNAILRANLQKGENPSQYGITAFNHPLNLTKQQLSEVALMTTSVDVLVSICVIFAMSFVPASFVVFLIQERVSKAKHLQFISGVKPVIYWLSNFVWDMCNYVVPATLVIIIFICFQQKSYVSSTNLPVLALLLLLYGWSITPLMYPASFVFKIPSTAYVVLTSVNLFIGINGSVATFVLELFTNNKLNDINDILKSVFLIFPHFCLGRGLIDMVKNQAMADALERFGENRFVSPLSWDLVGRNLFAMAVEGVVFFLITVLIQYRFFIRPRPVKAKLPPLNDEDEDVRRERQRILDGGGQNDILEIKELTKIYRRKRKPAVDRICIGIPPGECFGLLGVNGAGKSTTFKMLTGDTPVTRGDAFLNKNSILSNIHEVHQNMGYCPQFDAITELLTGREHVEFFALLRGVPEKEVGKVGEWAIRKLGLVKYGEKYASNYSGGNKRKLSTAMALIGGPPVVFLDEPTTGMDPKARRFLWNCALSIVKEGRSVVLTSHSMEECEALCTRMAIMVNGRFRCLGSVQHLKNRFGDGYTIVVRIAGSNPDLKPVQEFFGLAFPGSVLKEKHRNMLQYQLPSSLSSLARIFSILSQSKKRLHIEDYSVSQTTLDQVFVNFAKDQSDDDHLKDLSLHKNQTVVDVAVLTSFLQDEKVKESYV

CC(C)(Sc1cc(C(C)(C)C)c(OC(=O)CCC(=O)O)c(C(C)(C)C)c1)Sc1cc(C(C)(C)C)c(OC(=O)CCC(=O)O)c(C(C)(C)C)c1 [AIF1]
intracellular concentration of calcein (MDR1-mediated cell outflow of fluorescent calcein) [1]: significantly and dose-dependent increases | effect on MDR1-mediated accumulation of fluorescent calcein [2]: highly effective | accumulation/extrusion of fluorescent Hoechst (ABCG2 substrate) [3]: did not show any effect | outflow of cholesterol mediated by ABCA1 [4]: does not show any effect | outflow of cholesterol mediated by ABCG1 [5]: does not show any effect | intracellular fluorescent signal of doxorubicin ([6]; after 60 and 90 minutes of doxorubicin in the presence of AIF1, FIGS. 7B, 7C): remains almost unaltered | intracellular fluorescent signal of doxorubicin ([6]; after 30 minutes doxorubicin, vs cells not treated with the compound, FIG. 7A): considerably increased | concentration of intracellular doxorubicin [7]: significantly higher
